Values quoted from earlier work as cited in publication PMC7870075, “Physicochemical properties and formulation development of a novel compound inhibiting Staphylococcus aureus biofilm formation” (PLoS ONE, 2021).

Set-up: method as in PMID 23433668
Details: cited from earlier work

Compound: C=CCn1c(NCC)nc2c(c1=O)C(C)(C)Cc1cc(OC)ccc1-2 [CCG-203592]
- half-life in mouse liver microsomes (t1/2): 48 s
